In patent US6043263A, “(2,3-dihydrobenzofuranyl)-thiazoles as phosphodiesterase inhibitors” (Byk Gulden Lomberg Chemische Fabrik GmbH, priority 1996, dated 2000):
Counter-ions that a name gives are not always drawn.

tested on: PDE IV; experiment: Inhibition of PDE IV activity; type: biochemical; details: method of Bauer and Schwabe adapted to microtiter plates
Experimental: The activity test was carried out according to the method of Bauer and Schwabe, which was adapted to microtiter plates (Naunyn-Schmiedeberg's Arch. Pharmacol. 311, 193-198, 1980). In this test, the PDE reaction takes place in the first step. In a second step, the charged 5'-nucleotide is cleaved to give the uncharge nucleoside by a 5'-nucleotidase of the snake veno of Ophiophagus hannah (king cobra). In the third step, the nucleoside is separated from the remaining charged substrate on ion exchange columns. The columns are eluted directly into minivials using 2 ml of 30 mM ammonium formate (pH 6.0) to which a further 2 ml of scintillator fluid is added for counting.
The inhibitory values determined for the compounds according to the invention result from Table 1 which follows, in which the numbers of the compounds correspond to the numbers of the examples.

| Compound | -log IC50 |
| --- | --- |
| COc1ccc(-c2csc(-c3cccnc3)n2)c2c1OC1(CCCC1)C2 [Compound 1, 3-[4-(2,3-Dihydro-7-methoxybenzofuran-2-spiro-1'-cyclopentan-4-yl)thiazol-2-yl]pyridine] | 7.74 |
| COc1ccc(-c2csc(-c3ccncc3)n2)c2c1OC1(CCCC1)C2 [Compound 2, 4-[4-(2,3-Dihydro-7-methoxybenzofuran-2-spiro-1'-cyclopentan-4-yl)thiazol-2-yl]pyridine] | 7.25 |
| CCOC(=O)c1cc(-c2nc(-c3ccc(OC)c4c3CC3(CCCC3)O4)cs2)ccn1 [Compound 3, Ethyl 4-[4-(2,3-Dihydro-7-methoxybenzofuran-2-spiro-1'-cyclopentan-4-yl)thiazol-2-yl]pyridine-2-carboxylate] | 7.22 |
| COc1ccc(-c2csc(-c3ccnc(C(=O)O)c3)n2)c2c1OC1(CCCC1)C2 [Compound 4, 4-[4-(2,3-Dihydro-7-methoxybenzofuran-2-spiro-1'-cyclopentan-4-yl)thiazol-2-yl]pyridine-2-carboxylic acid semihydrochloride] | 6.85 |
| COc1ccc(-c2csc(-c3cccc(C(=O)O)c3)n2)c2c1OC1(CCCC1)C2 [Compound 5, 3-[4-(2,3-Dihydro-7-methoxybenzofuran-2-spiro-1'-cyclopentan-4-yl)thiazol-2-yl]benzoic acid] | 7.79 |
